According to patent US20100029775A1, “RENIN INHIBITORS FOR THE PREVENTION AND TREATMENT OF HYPERTENSION IN OBESE PATIENTS” (priority 2006, published 2010):
Marks after values point to notes of the source that are not given here.

Tested on: obese patients with hypertension
Experiment: Randomized, double-blind, multicenter clinical study: add-on treatment in grade 3 obese hypertensive patients who did not respond to HCTZ 25 mg
Assay type: in vivo, human
Details: for BP control rate (in words): grade 3 obesity patients, comparison between treatment groups
Description: The effect of Aliskiren to treat hypertension in patients with obesity was investigated in a clinical study. […] [table]

[1] = Grade 3 obesity (BMI ≧ 40 kg/m^2), least squares mean ± SEM change from baseline at wk 12 endpoint (ANCOVA; intent-to-treat), add-on to HCTZ 25 mg, dose doubled after 4 weeks

Row | SMILES | Change in DBP, mmHg [1] | Change in SBP, mmHg [1] | BP control rate (Grade 3 obesity (BMI ≧ 40 kg/m^2), patients reaching <140/90 mmHg, wk 12 endpoint, logistic regression model) | BP control rate (in words)
1 | NS(=O)(=O)c1cc2c(cc1Cl)NCNS2(=O)=O [PBO/HCTZ, hydrochlorothiazide] | −5.9 ± 2.2 mmHg | −7.1 ± 3.2 mmHg | 16.7%** | lower control rates
2 | COCCCOc1cc(C[C@@H](C[C@H](N)[C@@H](O)C[C@H](C(=O)NCC(C)(C)C(N)=O)C(C)C)C(C)C)ccc1OC [aliskiren, 2(S),4(S),5(S),7(S)—N-(3-amino-2,2-dimethyl-3-oxopropyl)-2,7-di(1-methylethyl)-4-hydroxy-5-amino-8-[4-methoxy-3-(3-methoxy-propoxy)phenyl]-octanamide] | – | – | – | highly effective BP control
